Assay results from ChEMBL document CHEMBL1275534, “Is 60 days of ciprofloxacin administration necessary for postexposure prophylaxis for Bacillus anthracis?” (Antimicrob Agents Chemother, 2008).
In brackets after ≈: the same amount, converted by molar mass.

What was measured:
Bacillus anthracis [1] = assay: Effect on growth of pX01 and pX02 deficient Bacillus anthracis delta-Sterne infected in hollow-fiber pharmacodynamic model assessed as maximal vegetative plus spore phase population size at 500 mg every 12 hrs; format: functional
Bacillus anthracis [2] = assay: Antibacterial activity against pX01 and pX02 deficient Bacillus anthracis delta-Sterne after 24 hrs; format: functional

Molecule `O=C(O)c1cn(C2CC2)c2cc(N3CCNCC3)c(F)cc2c1=O` [CIPROFLOXACIN] has a log10CFU/ml (Bacillus anthracis [1]) of 554300000 and an MBC (Bacillus anthracis [2]) of 1 µg/mL (≈ 3.02 µM).
